SMILES strings stand for the structures. Entries after “also recorded” stand apart in the source; their conditions may differ.

The nature of series [1]: Moisture sorption analysis. The format is physicochemical. The settings on record: for Moisture sorption: hygroscopicity: relative humidity scan; for XRPD pattern following the moisture sorption/desorption analysis: after moisture sorption experiment.
Description: Moisture Sorption Analysis was performed with a Hiden IGAsorp Moisture Sorption Instrument. Samples were first dried at 0% relative humidity at 25° C. until an equilibrium weight was reached, or for a maximum of 4 hours. Samples were then subjected to an isothermal (25° C.) scan from 10-90% relative humidity in steps of 10%. The samples were allowed to equilibrate to an asymptotic weight at each point for a maximum of 4 hours. Following absorption, a desorption scan from 85% relative humidity (at 25° C.) was run in steps of −10%, again allowing a maximum of 4 hours for the samples to equilibrate. The resulting samples after desorption were dried at 80° C. for two hours and analyzed by XRPD.
A short description of series [2]: Form conversion and degradation under thermal stress. Particulars: 60° C.; for Form conversion and degradation under thermal stress (XRPD, DSC): closed, protected from light, 7 and 14 days; for Thermal stability of form: 7 days. As to the method: Studies were also conducted to evaluate the likelihood for conversion and degradation under thermal stress.
Series [3] can be described thus: Slurry studies (inter-conversion of the solid form). Particulars: for Slurry study: conversion of solid form: n-heptane, dichloromethane (CH2Cl2) and toluene, 7 and 14 days; for Slurries: conversion of solid form: 50/50 mixtures of Forms C, D and F in ethyl acetate, acetonitrile and isopropanol, room temperature.
Description: Slurry experiments were performed on each form to determine propensity for conversion and to see if a unique form could be generated.

On to `CC1=Nc2ccc(Cl)cc2S(=O)(=O)[N-]1.C[N+](C)(C)CCO` [Form A], for which, in series [1] (25° C.), the “Moisture sorption: hygroscopicity” value is given as “Hygroscopic - deliquesced” and the “Water absorbed at 60% RH” value is on record as 2.4 wt %. In addition, in series [1], the “XRPD pattern following the moisture sorption/desorption analysis” value was “consistent with Form A”. The “Form conversion and degradation under thermal stress (XRPD, DSC)” value in series [2] is given as “Started to convert to Form”. Besides, the “Slurry study: conversion of solid form” value in series [3] is reported as “conversion to Form B was observed after seven days; also recorded: Converted to Form B after”.

Consider `CC1=Nc2ccc(Cl)cc2S(=O)(=O)[N-]1.[Na+]` [sodium salt of diazoxide], for which, in series [1] (25° C., desorption scan), the “Hysteresis upon desorption / hydrate formation” value is “possible hydrate formation”. Further, in series [1] (25° C.), the “Moisture sorption: hygroscopicity” value is listed as “hygroscopic” and the “Water absorbed at 60% RH” value was determined as 1.2 wt %. The “Moisture sorption: hygroscopicity” value in series [1] (25° C., listed as Sodium diazoxide salt) is on record as “deliquescent -”. Moreover, in series [1] (25° C., 80% RH), the “Water absorbed at 80% RH” value turned out to be 6.6 wt %. Also, in series [2], the “Form conversion and degradation under thermal stress (XRPD, DSC)” value is listed as “little propensity to change form or degrade”. Moreover, the “Slurry study: conversion of solid form” value in series [3] was “no propensity of inter-conversion”.

On to `C1COCCO1.CC1=Nc2ccc(Cl)cc2S(=O)(=O)[N-]1.CC1=Nc2ccc(Cl)cc2S(=O)(=O)[N-]1.[K+].[K+]` [Form F], for which the “Moisture sorption: hygroscopicity” value in series [1] (25° C.) was “hygroscopic”. The “XRPD pattern following the moisture sorption/desorption analysis” value in series [1] is recorded as “consistent with Form D”. Moreover, in series [2], the “Thermal stability of form” value is “Stable (7 days)”. Moreover, the “Slurries: conversion of solid form” value in series [3] is listed as “conversion to Form D was observed in all solvents; also recorded: Converted to Form D”.

On to `CC1=Nc2ccc(Cl)cc2S(=O)(=O)[N-]1.CC1=Nc2ccc(Cl)cc2S(=O)(=O)[N-]1.O.[K+].[K+]` [Form D], for which the “Moisture sorption: hygroscopicity” value in series [1] (25° C.) is recorded as “hygroscopic; also recorded: Hygroscopic -”. Also, in series [1], the “XRPD pattern following the moisture sorption/desorption analysis” value is listed as “consistent with Form D”. The “Thermal stability of form” value in series [2] is reported as “Stable (7 days)”. Besides, the “Slurries: conversion of solid form” value in series [3] is listed as “conversion to Form D was observed in all solvents; also recorded: Converted to Form D”.

For the origin of these results see patent publication US10085998B2, “Salts of potassium ATP channel openers and uses thereof” (Essentialis, Inc., priority 2006, dated 2018).
